Test results: the supplement of paper PMC4862054

Tested on: MDA-MB-468
Experiment: normalised viability (% of control), CellTiter-Blue; higher = more viable cells (100 = DMSO, 0 = benzethonium chloride kill control)
Settings: incubation time: 72 h
Method: (§1)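 DSRT, CellTiter-Blue viability, 72 h incubation. Signal is normalised to DMSO and benzethonium chloride controls. Value is the normalised response at dose 1.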

| Compound | normalised viability |
| --- | --- |
| C=C(c1ccc(C(=O)O)cc1)c1cc2c(cc1C)C(C)(C)CCC2(C)C [Bexarotene] (1 nM) | 105% |
| C[C@]12CC[C@@H]3c4ccc(O)cc4C[C@@H](CCCCCCCCC[S+]([O-])CCCC(F)(F)C(F)(F)F)[C@H]3[C@@H]1CC[C@@H]2O (stereo not given in full) [Fulvestrant] (1 nM) | 93.2% |
| CCC1(c2ccc(N)cc2)CCC(=O)NC1=O (stereo not given) [Aminoglutethimide] (1 nM) | 97.1% |
| COc1cc2nccc(Oc3ccc(NC(=O)C4(C(=O)Nc5ccc(F)cc5)CC4)cc3)c2cc1OC [Cabozantinib] (0.1 nM) | 105% |
| C[C@@H](Oc1cc(-c2cnn(C3CCNCC3)c2)cnc1N)c1c(Cl)ccc(F)c1Cl [Crizotinib] (1 nM) | 91.4% |

Tested on: SK-BR-3
Experiment: as above
Settings: incubation time: 72 h
Method: as §1

| Compound | normalised viability |
| --- | --- |
| CN(N=O)C(=O)N[C@@H](C=O)[C@@H](O)[C@H](O)[C@H](O)CO [Streptozocin] (1 nM) | 106% |
| C=C(c1ccc(C(=O)O)cc1)c1cc2c(cc1C)C(C)(C)CCC2(C)C [Bexarotene] (1 nM) | 94.8% |
| C[C@]12CC[C@@H]3c4ccc(O)cc4C[C@@H](CCCCCCCCC[S+]([O-])CCCC(F)(F)C(F)(F)F)[C@H]3[C@@H]1CC[C@@H]2O (stereo not given in full) [Fulvestrant] (1 nM) | 108% |
| CCC1(c2ccc(N)cc2)CCC(=O)NC1=O (stereo not given) [Aminoglutethimide] (1 nM) | 90% |
| COc1cc2nccc(Oc3ccc(NC(=O)C4(C(=O)Nc5ccc(F)cc5)CC4)cc3)c2cc1OC [Cabozantinib] (0.1 nM) | 101% |
| C[C@@H](Oc1cc(-c2cnn(C3CCNCC3)c2)cnc1N)c1c(Cl)ccc(F)c1Cl [Crizotinib] (1 nM) | 98.5% |

Tested on: CAL-120
Experiment: as above
Settings: incubation time: 72 h
Method: as §1

| Compound | normalised viability |
| --- | --- |
| CN(N=O)C(=O)N[C@@H](C=O)[C@@H](O)[C@H](O)[C@H](O)CO [Streptozocin] (1 nM) | 101% |
| C=C(c1ccc(C(=O)O)cc1)c1cc2c(cc1C)C(C)(C)CCC2(C)C [Bexarotene] (1 nM) | 115% |
| C[C@]12CC[C@@H]3c4ccc(O)cc4C[C@@H](CCCCCCCCC[S+]([O-])CCCC(F)(F)C(F)(F)F)[C@H]3[C@@H]1CC[C@@H]2O (stereo not given in full) [Fulvestrant] (1 nM) | 77.8% |
| CCC1(c2ccc(N)cc2)CCC(=O)NC1=O (stereo not given) [Aminoglutethimide] (1 nM) | 110% |
| COc1cc2nccc(Oc3ccc(NC(=O)C4(C(=O)Nc5ccc(F)cc5)CC4)cc3)c2cc1OC [Cabozantinib] (0.1 nM) | 83.8% |
| C[C@@H](Oc1cc(-c2cnn(C3CCNCC3)c2)cnc1N)c1c(Cl)ccc(F)c1Cl [Crizotinib] (1 nM) | 90.6% |

Tested on: CAL-148
Experiment: as above
Settings: incubation time: 72 h
Method: as §1

| Compound | normalised viability |
| --- | --- |
| CN(N=O)C(=O)N[C@@H](C=O)[C@@H](O)[C@H](O)[C@H](O)CO [Streptozocin] (1 nM) | 111% |
| C=C(c1ccc(C(=O)O)cc1)c1cc2c(cc1C)C(C)(C)CCC2(C)C [Bexarotene] (1 nM) | 105% |
| C[C@]12CC[C@@H]3c4ccc(O)cc4C[C@@H](CCCCCCCCC[S+]([O-])CCCC(F)(F)C(F)(F)F)[C@H]3[C@@H]1CC[C@@H]2O (stereo not given in full) [Fulvestrant] (1 nM) | 102% |
| CCC1(c2ccc(N)cc2)CCC(=O)NC1=O (stereo not given) [Aminoglutethimide] (1 nM) | 107% |
| COc1cc2nccc(Oc3ccc(NC(=O)C4(C(=O)Nc5ccc(F)cc5)CC4)cc3)c2cc1OC [Cabozantinib] (0.1 nM) | 107% |
| C[C@@H](Oc1cc(-c2cnn(C3CCNCC3)c2)cnc1N)c1c(Cl)ccc(F)c1Cl [Crizotinib] (1 nM) | 101% |

Tested on: MFM-223
Experiment: as above
Settings: incubation time: 72 h
Method: as §1

| Compound | normalised viability |
| --- | --- |
| CN(N=O)C(=O)N[C@@H](C=O)[C@@H](O)[C@H](O)[C@H](O)CO [Streptozocin] (1 nM) | 92.8% |
| C=C(c1ccc(C(=O)O)cc1)c1cc2c(cc1C)C(C)(C)CCC2(C)C [Bexarotene] (1 nM) | 99.6% |
| C[C@]12CC[C@@H]3c4ccc(O)cc4C[C@@H](CCCCCCCCC[S+]([O-])CCCC(F)(F)C(F)(F)F)[C@H]3[C@@H]1CC[C@@H]2O (stereo not given in full) [Fulvestrant] (1 nM) | 74.9% |
| CCC1(c2ccc(N)cc2)CCC(=O)NC1=O (stereo not given) [Aminoglutethimide] (1 nM) | 108% |
| COc1cc2nccc(Oc3ccc(NC(=O)C4(C(=O)Nc5ccc(F)cc5)CC4)cc3)c2cc1OC [Cabozantinib] (0.1 nM) | 93% |
| C[C@@H](Oc1cc(-c2cnn(C3CCNCC3)c2)cnc1N)c1c(Cl)ccc(F)c1Cl [Crizotinib] (1 nM) | 87.8% |

Tested on: HCC1937
Experiment: as above
Settings: incubation time: 72 h
Method: as §1

| Compound | normalised viability |
| --- | --- |
| CN(N=O)C(=O)N[C@@H](C=O)[C@@H](O)[C@H](O)[C@H](O)CO [Streptozocin] (1 nM) | 99.1% |
| C=C(c1ccc(C(=O)O)cc1)c1cc2c(cc1C)C(C)(C)CCC2(C)C [Bexarotene] (1 nM) | 108% |
| C[C@]12CC[C@@H]3c4ccc(O)cc4C[C@@H](CCCCCCCCC[S+]([O-])CCCC(F)(F)C(F)(F)F)[C@H]3[C@@H]1CC[C@@H]2O (stereo not given in full) [Fulvestrant] (1 nM) | 87.6% |
| CCC1(c2ccc(N)cc2)CCC(=O)NC1=O (stereo not given) [Aminoglutethimide] (1 nM) | 97.3% |
| COc1cc2nccc(Oc3ccc(NC(=O)C4(C(=O)Nc5ccc(F)cc5)CC4)cc3)c2cc1OC [Cabozantinib] (0.1 nM) | 94.8% |
| C[C@@H](Oc1cc(-c2cnn(C3CCNCC3)c2)cnc1N)c1c(Cl)ccc(F)c1Cl [Crizotinib] (1 nM) | 105% |

Tested on: DU-4475
Experiment: as above
Settings: incubation time: 72 h
Method: as §1

| Compound | normalised viability |
| --- | --- |
| CN(N=O)C(=O)N[C@@H](C=O)[C@@H](O)[C@H](O)[C@H](O)CO [Streptozocin] (1 nM) | 104% |
| C=C(c1ccc(C(=O)O)cc1)c1cc2c(cc1C)C(C)(C)CCC2(C)C [Bexarotene] (1 nM) | 82.5% |
| C[C@]12CC[C@@H]3c4ccc(O)cc4C[C@@H](CCCCCCCCC[S+]([O-])CCCC(F)(F)C(F)(F)F)[C@H]3[C@@H]1CC[C@@H]2O (stereo not given in full) [Fulvestrant] (1 nM) | 97.6% |
| CCC1(c2ccc(N)cc2)CCC(=O)NC1=O (stereo not given) [Aminoglutethimide] (1 nM) | 98.7% |
| COc1cc2nccc(Oc3ccc(NC(=O)C4(C(=O)Nc5ccc(F)cc5)CC4)cc3)c2cc1OC [Cabozantinib] (0.1 nM) | 101% |
| C[C@@H](Oc1cc(-c2cnn(C3CCNCC3)c2)cnc1N)c1c(Cl)ccc(F)c1Cl [Crizotinib] (1 nM) | 101% |

Tested on: MDA-MB-231
Experiment: as above
Settings: incubation time: 72 h
Method: as §1

| Compound | normalised viability |
| --- | --- |
| CN(N=O)C(=O)N[C@@H](C=O)[C@@H](O)[C@H](O)[C@H](O)CO [Streptozocin] (1 nM) | 106% |
| C=C(c1ccc(C(=O)O)cc1)c1cc2c(cc1C)C(C)(C)CCC2(C)C [Bexarotene] (1 nM) | 86.1% |
| C[C@]12CC[C@@H]3c4ccc(O)cc4C[C@@H](CCCCCCCCC[S+]([O-])CCCC(F)(F)C(F)(F)F)[C@H]3[C@@H]1CC[C@@H]2O (stereo not given in full) [Fulvestrant] (1 nM) | 79% |
| CCC1(c2ccc(N)cc2)CCC(=O)NC1=O (stereo not given) [Aminoglutethimide] (1 nM) | 85.4% |
| COc1cc2nccc(Oc3ccc(NC(=O)C4(C(=O)Nc5ccc(F)cc5)CC4)cc3)c2cc1OC [Cabozantinib] (0.1 nM) | 115% |
| C[C@@H](Oc1cc(-c2cnn(C3CCNCC3)c2)cnc1N)c1c(Cl)ccc(F)c1Cl [Crizotinib] (1 nM) | 93.3% |

Tested on: HCC1599
Experiment: as above
Settings: incubation time: 72 h
Method: as §1

| Compound | normalised viability |
| --- | --- |
| CN(N=O)C(=O)N[C@@H](C=O)[C@@H](O)[C@H](O)[C@H](O)CO [Streptozocin] (1 nM) | 132% |
| C=C(c1ccc(C(=O)O)cc1)c1cc2c(cc1C)C(C)(C)CCC2(C)C [Bexarotene] (1 nM) | 101% |
| C[C@]12CC[C@@H]3c4ccc(O)cc4C[C@@H](CCCCCCCCC[S+]([O-])CCCC(F)(F)C(F)(F)F)[C@H]3[C@@H]1CC[C@@H]2O (stereo not given in full) [Fulvestrant] (1 nM) | 94.6% |
| CCC1(c2ccc(N)cc2)CCC(=O)NC1=O (stereo not given) [Aminoglutethimide] (1 nM) | 95.7% |
| COc1cc2nccc(Oc3ccc(NC(=O)C4(C(=O)Nc5ccc(F)cc5)CC4)cc3)c2cc1OC [Cabozantinib] (0.1 nM) | 77.6% |
| C[C@@H](Oc1cc(-c2cnn(C3CCNCC3)c2)cnc1N)c1c(Cl)ccc(F)c1Cl [Crizotinib] (1 nM) | 85.4% |

Tested on: BT-549
Experiment: normalised response (% of control), CellTiter-Glo; higher = more viable cells (100 = DMSO, 0 = benzethonium chloride kill control)
Settings: incubation time: 72 h
Outline: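 Breast cancer cell lines, seeded at 20 µl suspension per well, were incubated for 72 h in 384-well plates containing compound at 5 concentrations. These concentrations rose in 10-fold steps over a 10,000-fold range set for each compound. CellTox Green fluorescence (485/520 nm) was read, then CellTiter-Glo luminescence after 10 min at room temperature, and each plate was normalised to 0.1 % DMSO (100) and a positive kill control (0). Values are normalised signals, each at one concentration.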

| Compound | normalised response |
| --- | --- |
| CN(N=O)C(=O)N[C@@H](C=O)[C@@H](O)[C@H](O)[C@H](O)CO [Streptozocin] (1 nM) | 102% |
| C=C(c1ccc(C(=O)O)cc1)c1cc2c(cc1C)C(C)(C)CCC2(C)C [Bexarotene] (1 nM) | 103% |
